ChEMBL document CHEMBL4507318, “Data for DCP probe BAY-985” (2021)

Legend:
[1] = tested on: Tyrosine-protein kinase ABL1 (Homo sapiens), P00519 [F317L]
[2] = tested on: Tyrosine-protein kinase ABL1 (Homo sapiens), P00519 [T315I]
[3] = biological target: Tyrosine-protein kinase ABL1 (Homo sapiens) (UniProt P00519)
[4] = biological target: Aurora kinase B (Homo sapiens) (UniProt Q96GD4)
[5] = biological target: Tyrosine-protein kinase receptor UFO (Homo sapiens) (UniProt P30530)
[6] = biological target: Serine/threonine-protein kinase BRSK2 (Homo sapiens) (UniProt Q8IWQ3)
[7] = biological target: Tyrosine-protein kinase BTK (Homo sapiens) (UniProt Q06187)
Chain of Tyrosine-protein kinase BTK (Homo sapiens) (Q06187 whole entry): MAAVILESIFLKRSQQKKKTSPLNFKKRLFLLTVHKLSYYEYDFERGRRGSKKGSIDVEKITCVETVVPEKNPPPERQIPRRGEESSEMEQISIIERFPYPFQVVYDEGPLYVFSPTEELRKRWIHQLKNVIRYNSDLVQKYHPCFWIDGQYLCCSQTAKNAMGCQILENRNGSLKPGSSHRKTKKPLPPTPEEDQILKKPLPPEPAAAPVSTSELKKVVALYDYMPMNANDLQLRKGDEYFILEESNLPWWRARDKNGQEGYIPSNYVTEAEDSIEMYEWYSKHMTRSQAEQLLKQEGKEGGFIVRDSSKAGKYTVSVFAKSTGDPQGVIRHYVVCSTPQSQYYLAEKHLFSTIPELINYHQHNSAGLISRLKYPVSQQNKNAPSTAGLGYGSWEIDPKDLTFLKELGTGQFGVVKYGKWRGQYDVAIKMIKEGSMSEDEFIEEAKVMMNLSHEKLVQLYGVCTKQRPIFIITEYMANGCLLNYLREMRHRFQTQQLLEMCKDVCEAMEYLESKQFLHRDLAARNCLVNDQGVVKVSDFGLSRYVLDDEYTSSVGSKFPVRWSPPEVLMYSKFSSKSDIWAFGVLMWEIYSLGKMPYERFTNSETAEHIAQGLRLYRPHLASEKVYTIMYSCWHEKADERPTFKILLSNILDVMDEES

[8] = biological target: Calcium/calmodulin-dependent protein kinase type II subunit beta (Homo sapiens) (UniProt Q13554)
[9] = biological target: Cyclin-dependent kinase 11B (Homo sapiens) (UniProt P21127)
Chain of Cyclin-dependent kinase 11B (Homo sapiens) (P21127 whole entry): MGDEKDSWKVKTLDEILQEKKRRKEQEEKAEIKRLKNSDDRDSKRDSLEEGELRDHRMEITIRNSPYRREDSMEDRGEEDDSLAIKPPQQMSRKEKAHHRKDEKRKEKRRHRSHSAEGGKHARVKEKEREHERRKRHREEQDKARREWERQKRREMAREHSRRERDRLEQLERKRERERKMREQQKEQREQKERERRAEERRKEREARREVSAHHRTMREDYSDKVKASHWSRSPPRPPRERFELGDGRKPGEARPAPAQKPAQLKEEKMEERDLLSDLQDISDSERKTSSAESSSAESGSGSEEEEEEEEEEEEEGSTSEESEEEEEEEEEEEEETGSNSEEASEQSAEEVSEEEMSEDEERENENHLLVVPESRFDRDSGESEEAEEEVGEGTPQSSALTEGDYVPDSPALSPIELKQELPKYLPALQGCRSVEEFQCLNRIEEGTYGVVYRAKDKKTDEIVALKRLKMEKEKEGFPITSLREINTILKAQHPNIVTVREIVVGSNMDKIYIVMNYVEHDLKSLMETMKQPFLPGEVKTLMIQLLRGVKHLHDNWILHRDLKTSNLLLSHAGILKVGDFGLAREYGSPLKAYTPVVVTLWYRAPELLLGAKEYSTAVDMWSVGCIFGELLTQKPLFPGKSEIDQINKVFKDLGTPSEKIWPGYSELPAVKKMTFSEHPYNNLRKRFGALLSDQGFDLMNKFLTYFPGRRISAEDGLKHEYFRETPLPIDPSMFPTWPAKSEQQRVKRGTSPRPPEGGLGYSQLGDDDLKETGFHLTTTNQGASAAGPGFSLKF

[10] = biological target: Cyclin-dependent kinase 13 (Homo sapiens) (UniProt Q14004)
[11] = biological target: Citron Rho-interacting kinase (Homo sapiens) (UniProt O14578)
[12] = biological target: Tyrosine-protein kinase CSK (Homo sapiens) (UniProt P41240)
[13] = biological target: Casein kinase I isoform alpha-like (Homo sapiens) (UniProt Q8N752)
[14] = biological target: Dual specificity tyrosine-phosphorylation-regulated kinase 1A (Homo sapiens) (UniProt Q13627)
[15] = biological target: Ephrin type-A receptor 3 (Homo sapiens) (UniProt P29320)
[16] = biological target: Ephrin type-B receptor 4 (Homo sapiens) (UniProt P54760)
[17] = biological target: Focal adhesion kinase 1 (Homo sapiens) (UniProt Q05397)
[18] = biological target: Mitogen-activated protein kinase 8 (Homo sapiens) (UniProt P45983)
[19] = biological target: Serine/threonine-protein kinase LATS2 (Homo sapiens) (UniProt Q9NRM7)
[20] = biological target: Mitogen-activated protein kinase kinase kinase 4 (Homo sapiens) (UniProt Q9Y6R4)
[21] = biological target: Dual specificity mitogen-activated protein kinase kinase 4 (Homo sapiens) (UniProt P45985)
[22] = biological target: Myosin light chain kinase (Homo sapiens) (UniProt Q32MK0)
[23] = biological target: Serine/threonine-protein kinase Nek2 (Homo sapiens) (UniProt P51955)
[24] = biological target: Serine/threonine-protein kinase Nek7 (Homo sapiens) (UniProt Q8TDX7)
[25] = biological target: Mitogen-activated protein kinase 14 (Homo sapiens) (UniProt Q16539)
Chain of Mitogen-activated protein kinase 14 (Homo sapiens) (Q16539 whole entry): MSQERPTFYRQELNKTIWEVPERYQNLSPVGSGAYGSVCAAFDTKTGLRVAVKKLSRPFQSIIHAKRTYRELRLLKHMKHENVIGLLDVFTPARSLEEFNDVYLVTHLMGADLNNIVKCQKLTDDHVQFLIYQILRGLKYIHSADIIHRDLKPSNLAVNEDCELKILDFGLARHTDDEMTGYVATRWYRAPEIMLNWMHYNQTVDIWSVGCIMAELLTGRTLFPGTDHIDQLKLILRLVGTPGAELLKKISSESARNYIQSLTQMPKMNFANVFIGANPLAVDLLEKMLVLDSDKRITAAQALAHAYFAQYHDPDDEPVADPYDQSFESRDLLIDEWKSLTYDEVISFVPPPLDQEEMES

[26] = biological target: Serine/threonine-protein kinase PAK 3 (Homo sapiens) (UniProt O75914)
[27] = biological target: Cyclin-dependent kinase 16 (Homo sapiens) (UniProt Q00536)
[28] = biological target: Phosphatidylinositol 4-kinase beta (Homo sapiens) (UniProt Q9UBF8)
[29] = biological target: Membrane-associated tyrosine- and threonine-specific cdc2-inhibitory kinase (Homo sapiens) (UniProt Q99640)
[30] = biological target: Serine/threonine-protein kinase PLK1 (Homo sapiens) (UniProt P53350)
Chain of Serine/threonine-protein kinase PLK1 (Homo sapiens) (P53350 whole entry): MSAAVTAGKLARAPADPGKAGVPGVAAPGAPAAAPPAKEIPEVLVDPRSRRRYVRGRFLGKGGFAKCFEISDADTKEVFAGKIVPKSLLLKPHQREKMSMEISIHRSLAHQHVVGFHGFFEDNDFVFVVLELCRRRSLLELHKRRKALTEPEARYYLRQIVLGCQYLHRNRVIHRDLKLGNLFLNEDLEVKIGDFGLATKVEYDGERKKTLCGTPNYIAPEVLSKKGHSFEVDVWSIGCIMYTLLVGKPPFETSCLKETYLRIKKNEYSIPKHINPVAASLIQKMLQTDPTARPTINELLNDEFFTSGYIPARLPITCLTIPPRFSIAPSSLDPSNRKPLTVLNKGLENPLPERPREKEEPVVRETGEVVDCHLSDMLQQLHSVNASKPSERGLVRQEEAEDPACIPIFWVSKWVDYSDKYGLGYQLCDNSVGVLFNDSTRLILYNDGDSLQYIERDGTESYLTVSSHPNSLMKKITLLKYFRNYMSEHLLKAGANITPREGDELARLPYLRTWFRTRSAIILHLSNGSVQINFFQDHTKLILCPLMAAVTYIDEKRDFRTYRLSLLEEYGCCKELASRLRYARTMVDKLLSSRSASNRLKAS

[31] = biological target: Ribosomal protein S6 kinase alpha-4 (Homo sapiens) (UniProt O75676)
[32] = biological target: Ribosomal protein S6 kinase alpha-1 (Homo sapiens) (UniProt Q15418)
[33] = biological target: Ribosomal protein S6 kinase beta-1 (Homo sapiens) (UniProt P23443)
Chain of Ribosomal protein S6 kinase beta-1 (Homo sapiens) (P23443 whole entry, looked up): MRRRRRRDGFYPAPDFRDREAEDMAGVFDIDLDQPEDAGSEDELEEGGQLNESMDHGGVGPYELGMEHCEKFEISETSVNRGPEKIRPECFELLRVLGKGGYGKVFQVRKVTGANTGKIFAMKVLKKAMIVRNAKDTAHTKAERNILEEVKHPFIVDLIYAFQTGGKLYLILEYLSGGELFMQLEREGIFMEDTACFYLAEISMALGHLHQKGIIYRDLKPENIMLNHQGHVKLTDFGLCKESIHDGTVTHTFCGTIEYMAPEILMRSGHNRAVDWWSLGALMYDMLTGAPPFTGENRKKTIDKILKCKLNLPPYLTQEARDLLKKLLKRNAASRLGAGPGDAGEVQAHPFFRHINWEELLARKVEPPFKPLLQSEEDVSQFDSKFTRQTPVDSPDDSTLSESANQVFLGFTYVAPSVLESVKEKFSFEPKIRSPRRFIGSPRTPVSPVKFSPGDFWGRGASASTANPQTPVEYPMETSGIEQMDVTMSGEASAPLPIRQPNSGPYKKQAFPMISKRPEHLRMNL

[34] = biological target: NUAK family SNF1-like kinase 2 (Homo sapiens) (UniProt Q9H093)
[35] = biological target: Serine/threonine-protein kinase TAO1 (Homo sapiens) (UniProt Q7L7X3)
[36] = biological target: Angiopoietin-1 receptor (Homo sapiens) (UniProt Q02763)
Chain of Angiopoietin-1 receptor (Homo sapiens) (Q02763 whole entry): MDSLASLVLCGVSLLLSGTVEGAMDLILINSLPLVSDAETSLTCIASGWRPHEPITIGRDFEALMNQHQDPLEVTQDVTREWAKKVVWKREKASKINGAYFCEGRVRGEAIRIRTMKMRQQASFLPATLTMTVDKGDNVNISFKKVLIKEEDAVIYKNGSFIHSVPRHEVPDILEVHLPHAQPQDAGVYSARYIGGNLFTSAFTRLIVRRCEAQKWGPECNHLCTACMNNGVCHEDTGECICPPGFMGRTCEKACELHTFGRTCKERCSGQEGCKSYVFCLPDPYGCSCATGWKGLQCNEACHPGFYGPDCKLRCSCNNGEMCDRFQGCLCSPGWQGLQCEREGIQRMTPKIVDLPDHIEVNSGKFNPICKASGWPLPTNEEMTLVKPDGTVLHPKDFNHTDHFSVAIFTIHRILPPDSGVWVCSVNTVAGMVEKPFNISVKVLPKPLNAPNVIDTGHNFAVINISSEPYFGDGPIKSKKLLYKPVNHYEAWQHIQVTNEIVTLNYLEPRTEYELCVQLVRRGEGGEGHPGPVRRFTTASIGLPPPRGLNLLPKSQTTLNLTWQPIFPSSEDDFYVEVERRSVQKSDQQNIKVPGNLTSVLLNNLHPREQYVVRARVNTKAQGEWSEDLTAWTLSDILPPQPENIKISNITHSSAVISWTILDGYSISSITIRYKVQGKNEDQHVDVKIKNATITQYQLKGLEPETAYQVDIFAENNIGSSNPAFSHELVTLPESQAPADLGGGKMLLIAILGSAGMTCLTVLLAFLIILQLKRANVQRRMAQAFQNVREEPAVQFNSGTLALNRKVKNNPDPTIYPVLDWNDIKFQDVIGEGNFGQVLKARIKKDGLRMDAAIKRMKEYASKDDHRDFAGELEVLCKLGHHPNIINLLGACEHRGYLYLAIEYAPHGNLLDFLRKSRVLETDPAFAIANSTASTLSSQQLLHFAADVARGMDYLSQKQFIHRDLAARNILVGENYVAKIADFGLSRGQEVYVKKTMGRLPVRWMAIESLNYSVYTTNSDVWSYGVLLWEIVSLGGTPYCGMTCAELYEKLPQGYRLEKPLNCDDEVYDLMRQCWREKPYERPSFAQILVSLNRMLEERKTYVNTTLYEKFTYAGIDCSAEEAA

[37] = biological target: Serine/threonine-protein kinase TNNI3K (Homo sapiens) (UniProt Q59H18)
[38] = biological target: Serine/threonine-protein kinase WNK2 (Homo sapiens) (UniProt Q9Y3S1)
[39] = biological target: Serine/threonine-protein kinase WNK3 (Homo sapiens) (UniProt Q9BYP7)
[40] = biological target: 5-hydroxytryptamine receptor 1D (Homo sapiens) (UniProt P28221); conditions: Compound concentration 10.0 uM
[41] = biological target: 5-hydroxytryptamine receptor 6 (Homo sapiens) (UniProt P50406); conditions: Compound concentration 10.0 uM
Chain of 5-hydroxytryptamine receptor 6 (Homo sapiens) (P50406 whole entry): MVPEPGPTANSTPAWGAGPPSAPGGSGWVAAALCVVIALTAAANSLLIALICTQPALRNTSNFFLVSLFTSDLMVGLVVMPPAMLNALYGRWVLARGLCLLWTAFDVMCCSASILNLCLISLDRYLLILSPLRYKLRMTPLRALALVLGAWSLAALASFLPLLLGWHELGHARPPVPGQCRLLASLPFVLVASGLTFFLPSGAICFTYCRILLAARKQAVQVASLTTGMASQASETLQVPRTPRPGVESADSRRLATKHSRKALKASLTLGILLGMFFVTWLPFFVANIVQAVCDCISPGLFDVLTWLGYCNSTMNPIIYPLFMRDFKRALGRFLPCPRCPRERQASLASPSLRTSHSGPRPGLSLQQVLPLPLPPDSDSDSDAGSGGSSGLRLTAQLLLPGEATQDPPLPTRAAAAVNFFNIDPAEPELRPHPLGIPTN

[42] = biological target: D(2) dopamine receptor (Homo sapiens) (UniProt P14416); conditions: Compound concentration 10.0 uM
[43] = biological target: Sodium-dependent serotonin transporter (Homo sapiens) (UniProt P31645); conditions: Compound concentration 10.0 uM
[44] = biological target: Histamine H3 receptor (Homo sapiens) (UniProt Q9Y5N1); conditions: Compound concentration 10.0 uM
Chain of Histamine H3 receptor (Homo sapiens) (Q9Y5N1 whole entry): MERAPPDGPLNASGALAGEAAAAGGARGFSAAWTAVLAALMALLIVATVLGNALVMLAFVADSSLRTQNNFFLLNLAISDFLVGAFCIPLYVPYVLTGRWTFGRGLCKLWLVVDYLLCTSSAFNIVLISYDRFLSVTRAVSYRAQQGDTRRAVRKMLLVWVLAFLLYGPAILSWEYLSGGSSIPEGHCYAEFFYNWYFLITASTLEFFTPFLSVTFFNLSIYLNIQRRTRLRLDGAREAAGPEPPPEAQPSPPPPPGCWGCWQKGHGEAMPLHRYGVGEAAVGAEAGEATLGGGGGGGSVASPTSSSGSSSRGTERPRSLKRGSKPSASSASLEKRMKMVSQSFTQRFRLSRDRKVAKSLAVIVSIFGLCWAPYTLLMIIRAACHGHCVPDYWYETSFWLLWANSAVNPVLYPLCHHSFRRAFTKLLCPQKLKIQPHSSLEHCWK

[45] = biological target: Histamine H4 receptor (Homo sapiens) (UniProt Q9H3N8); conditions: Compound concentration 10.0 uM
[46] = biological target: Beta-1 adrenergic receptor (Homo sapiens) (UniProt P08588); conditions: Compound concentration 10.0 uM
[47] = Compound concentration 1000.0 nM
[48] = Compound concentration 100.0 nM

CN(C)c1ncnc(-c2ccc3nc(Nc4cc(CN5CCN(C(=O)CC(F)(F)F)CC5)ccn4)[nH]c3c2)c1Cl [BAY-440]
inactive: residual activity [1, 47] 57% | residual activity [2, 47] 51% | residual activity [3, 47] 51% | residual activity [4, 47] 85% | residual activity [5, 47] 57% | residual activity [6, 47] 100% | residual activity [7, 47] 80% | residual activity [8, 47] 100% | residual activity [9, 47] 100% | residual activity [10, 47] 84% | residual activity [11, 47] 100% | residual activity [12, 47] 84% | residual activity [13, 47] 94% | residual activity [14, 47] 77% | residual activity [15, 47] 63% | residual activity [16, 47] 100% | residual activity [17, 47] 100% | residual activity [18, 47] 63% | residual activity [19, 47] 53% | residual activity [20, 47] 100% | residual activity [21, 47] 92% | residual activity [22, 47] 90% | residual activity [23, 47] 86% | residual activity [24, 47] 100% | residual activity [25, 47] 100% | residual activity [26, 47] 81% | residual activity [27, 47] 74% | residual activity [28, 47] 100% | residual activity [29, 47] 75% | residual activity [30, 47] 59% | residual activity [31, 47] 80% | residual activity [32, 47] 98% | residual activity [33, 47] 92% | residual activity [34, 47] 66% | residual activity [35, 47] 77% | residual activity [36, 47] 87% | residual activity [37, 47] 50% | residual activity [38, 47] 59% | residual activity [39, 47] 85% | inhibition [40] 19.5% | inhibition [41] 12.4% | inhibition [42] 10.6% | inhibition [43] 9.9% | inhibition [44] 4.68% | inhibition [45] -2.29% | inhibition [46] -6.2%

C[C@H](c1ccnc(Nc2nc3ccc(-c4cc(N(C)C)ncn4)cc3[nH]2)c1)N1CCN(C(=O)CC(F)(F)F)CC1 [BAY-985]
inactive: residual activity [1, 48] 100% | residual activity [2, 48] 89% | residual activity [3, 48] 85% | residual activity [4, 48] 100% | residual activity [5, 48] 100% | residual activity [6, 48] 100% | residual activity [7, 48] 100% | residual activity [8, 48] 92% | residual activity [9, 48] 100% | residual activity [10, 48] 100% | residual activity [11, 48] 78% | residual activity [12, 48] 100% | residual activity [13, 48] 94% | residual activity [14, 48] 98% | residual activity [15, 48] 100% | residual activity [16, 48] 100% | residual activity [17, 48] 100% | residual activity [18, 48] 98% | residual activity [19, 48] 80% | residual activity [20, 48] 96% | residual activity [21, 48] 100% | residual activity [22, 48] 100% | residual activity [23, 48] 100% | residual activity [24, 48] 100% | residual activity [25, 48] 100% | residual activity [26, 48] 100% | residual activity [27, 48] 100% | residual activity [28, 48] 100% | residual activity [29, 48] 83% | residual activity [30, 48] 100% | residual activity [31, 48] 100% | residual activity [32, 48] 82% | residual activity [33, 48] 100% | residual activity [34, 48] 95% | residual activity [35, 48] 100% | residual activity [36, 48] 99% | residual activity [37, 48] 59% | residual activity [38, 48] 92% | residual activity [39, 48] 100% | inhibition [40] 23.2% | inhibition [41] -4.38% | inhibition [42] 5.66% | inhibition [43] 21.6% | inhibition [44] -3.83% | inhibition [45] -0.75% | inhibition [46] 24.3%
